Test results as given in PubChem BioAssay (NCI).
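Step 1: Grow cells in 96-well plates. Step 2: Expose to compound for 48 hours at 5 concentrations. Step 3: Interpolate endpoints linearly; if unreached, use highest concentration. TGI marks complete inhibition of growth.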

tested on: IGROV1 ovarian; test: NCI anticancer screen, dose series, 48 h

Row | SMILES | TGI
1 | Cc1cc2nc3[nH]c4c(Cl)cc(Cl)cc4c3nc2cc1C | > 100 µM
2 | Cn1c(CCC2(C)Cc3ccccc3C(=O)O2)cc2ccccc2c1=O (stereo not given) | 86.6 µM

tested on: T-47D breast; test: NCI anticancer screen, dose series, 48 h

Row | SMILES | TGI
3 | C[C@]12OC(=O)[C@]3(O)CC[C@H]4[C@@H](C[C@@H](O)[C@@]5(Cl)CC=CC(=O)[C@]45C)[C@]45OCC6C(=O)O[C@@H]1C[C@@]6(C)[C@H](C4=O)[C@@]32O5 (stereo not given in full) | 23.3 µM
4 | COc1ccc2nc3n[nH]c(N)c3nc2c1 | 46.5 µM
5 | O=C(NC(N1CCN(c2cc3c(cc2F)c(=O)c(C(=O)O)cn3C2CC2)CC1)(C(F)(F)F)C(F)(F)F)c1ccccc1 | > 100 µM
6 | Cc1cc2nc3[nH]c4c(Cl)cc(Cl)cc4c3nc2cc1C | > 100 µM
7 | Cn1c(CCC2(C)Cc3ccccc3C(=O)O2)cc2ccccc2c1=O (stereo not given) | 83.3 µM

tested on: M14 melanoma; test: NCI anticancer screen, dose series, 48 h

Row | SMILES | TGI
8 | C[C@]12OC(=O)[C@]3(O)CC[C@H]4[C@@H](C[C@@H](O)[C@@]5(Cl)CC=CC(=O)[C@]45C)[C@]45OCC6C(=O)O[C@@H]1C[C@@]6(C)[C@H](C4=O)[C@@]32O5 (stereo not given in full) | 2.47 µM
9 | COc1ccc2nc3n[nH]c(N)c3nc2c1 | 27.6 µM
10 | O=C(NC(N1CCN(c2cc3c(cc2F)c(=O)c(C(=O)O)cn3C2CC2)CC1)(C(F)(F)F)C(F)(F)F)c1ccccc1 | > 100 µM
11 | Cc1cc2nc3[nH]c4c(Cl)cc(Cl)cc4c3nc2cc1C | > 100 µM
12 | Cn1c(CCC2(C)Cc3ccccc3C(=O)O2)cc2ccccc2c1=O (stereo not given) | 33.5 µM

tested on: MCF7 breast; test: NCI anticancer screen, dose series, 48 h

Row | SMILES | TGI
13 | C[C@]12OC(=O)[C@]3(O)CC[C@H]4[C@@H](C[C@@H](O)[C@@]5(Cl)CC=CC(=O)[C@]45C)[C@]45OCC6C(=O)O[C@@H]1C[C@@]6(C)[C@H](C4=O)[C@@]32O5 (stereo not given in full) | 4 µM
14 | COc1ccc2nc3n[nH]c(N)c3nc2c1 | > 26.7 µM
15 | O=C(NC(N1CCN(c2cc3c(cc2F)c(=O)c(C(=O)O)cn3C2CC2)CC1)(C(F)(F)F)C(F)(F)F)c1ccccc1 | > 100 µM
16 | Cc1cc2nc3[nH]c4c(Cl)cc(Cl)cc4c3nc2cc1C | > 100 µM
17 | Cn1c(CCC2(C)Cc3ccccc3C(=O)O2)cc2ccccc2c1=O (stereo not given) | 56.3 µM

tested on: U251 CNS; test: NCI anticancer screen, dose series, 48 h

Row | SMILES | TGI
18 | C[C@]12OC(=O)[C@]3(O)CC[C@H]4[C@@H](C[C@@H](O)[C@@]5(Cl)CC=CC(=O)[C@]45C)[C@]45OCC6C(=O)O[C@@H]1C[C@@]6(C)[C@H](C4=O)[C@@]32O5 (stereo not given in full) | 15 µM
19 | COc1ccc2nc3n[nH]c(N)c3nc2c1 | > 56.3 µM
20 | O=C(NC(N1CCN(c2cc3c(cc2F)c(=O)c(C(=O)O)cn3C2CC2)CC1)(C(F)(F)F)C(F)(F)F)c1ccccc1 | > 100 µM
21 | Cc1cc2nc3[nH]c4c(Cl)cc(Cl)cc4c3nc2cc1C | > 100 µM
22 | Cn1c(CCC2(C)Cc3ccccc3C(=O)O2)cc2ccccc2c1=O (stereo not given) | > 100 µM

tested on: HOP-92 NSCLC; test: NCI anticancer screen, dose series, 48 h

Row | SMILES | TGI
23 | C[C@]12OC(=O)[C@]3(O)CC[C@H]4[C@@H](C[C@@H](O)[C@@]5(Cl)CC=CC(=O)[C@]45C)[C@]45OCC6C(=O)O[C@@H]1C[C@@]6(C)[C@H](C4=O)[C@@]32O5 (stereo not given in full) | 5.68 µM
24 | COc1ccc2nc3n[nH]c(N)c3nc2c1 | 48.6 µM
25 | O=C(NC(N1CCN(c2cc3c(cc2F)c(=O)c(C(=O)O)cn3C2CC2)CC1)(C(F)(F)F)C(F)(F)F)c1ccccc1 | 93.3 µM
26 | Cc1cc2nc3[nH]c4c(Cl)cc(Cl)cc4c3nc2cc1C | > 100 µM
27 | Cn1c(CCC2(C)Cc3ccccc3C(=O)O2)cc2ccccc2c1=O (stereo not given) | > 100 µM

tested on: CAKI-1 renal; test: NCI anticancer screen, dose series, 48 h

Row | SMILES | TGI
28 | C[C@]12OC(=O)[C@]3(O)CC[C@H]4[C@@H](C[C@@H](O)[C@@]5(Cl)CC=CC(=O)[C@]45C)[C@]45OCC6C(=O)O[C@@H]1C[C@@]6(C)[C@H](C4=O)[C@@]32O5 (stereo not given in full) | 4.03 µM
29 | COc1ccc2nc3n[nH]c(N)c3nc2c1 | > 90.6 µM
30 | O=C(NC(N1CCN(c2cc3c(cc2F)c(=O)c(C(=O)O)cn3C2CC2)CC1)(C(F)(F)F)C(F)(F)F)c1ccccc1 | 85.4 µM
31 | Cc1cc2nc3[nH]c4c(Cl)cc(Cl)cc4c3nc2cc1C | > 100 µM
32 | Cn1c(CCC2(C)Cc3ccccc3C(=O)O2)cc2ccccc2c1=O (stereo not given) | 51.6 µM

tested on: A498 renal; test: NCI anticancer screen, dose series, 48 h

Row | SMILES | TGI
33 | C[C@]12OC(=O)[C@]3(O)CC[C@H]4[C@@H](C[C@@H](O)[C@@]5(Cl)CC=CC(=O)[C@]45C)[C@]45OCC6C(=O)O[C@@H]1C[C@@]6(C)[C@H](C4=O)[C@@]32O5 (stereo not given in full) | 2.91 µM
34 | COc1ccc2nc3n[nH]c(N)c3nc2c1 | > 62.3 µM
35 | O=C(NC(N1CCN(c2cc3c(cc2F)c(=O)c(C(=O)O)cn3C2CC2)CC1)(C(F)(F)F)C(F)(F)F)c1ccccc1 | 94.4 µM
